# According to patent US20260263340A1, “Cosmetic Products and Cleaning Products Stabilized Against Microbial Attack” (Thor GmbH, priority 2023, published 2026):
# Structures can show the parent of a compound that is named as a salt.
# Experiments:
# yeast mixture 1 = experiment: Repeated-inoculation microbiological stress test of all-purpose cleaner, yeast mixture 1; type: cell-based; parameters: key to Yeast growth after inoculation: 0: No growth; Minimal growth, 1 to 10 colonies visible over the entire streak; 2: Light growth, maximum 100 colonies; Moderate growth, maximum 300 to 400 colonies; Uniform growth, >400 colonies, single colonies still clearly recognizable; 5: Heavy growth, too many colonies to count, but no growth over the entire streak; 6: Full growth, barely any single colonies still apparent, growth over the entire streak; conditions: for Yeast growth after inoculation: All-purpose cleaner, 6 d
# From the text: (§1) The tested cleaning composition was an all-purpose cleaner without preservatives and having a pH of 7.7, the skin lotion was a body lotion without preservatives and having a pH of 7.1, and the shampoo was a hair shampoo without preservatives and having a pH of 6.9.
# (§2) The cleaning composition was admixed with particular concentrations of guanidine carbonate and guanidine hydrochloride and homogenized. The body lotion and the hair shampoo were each admixed and homogenized with guanidine hydrochloride and with octane-1,2-diol alone or in combination.
# (§3) The batches of the products thus obtained were inoculated repeatedly at particular intervals with bacteria mixtures or yeast mixtures that are used as standard for microbiological stress tests of industrial products or cosmetic products (bacteria mixture 1 and 2, yeast mixture 1 and 2).
# (§4) The inoculum was added to the respective sample in each inoculation at 2% (v/w) as a fresh cell suspension in a physiological saline solution (0.9% NaCl). The cell count of the inoculum added was 10^8-10^9/ml for the bacteria mixtures, 10^7-10^8/ml for the yeast mixtures, consisting in equal parts of the individual bacteria strains or yeast strains.
# (§5) The cell suspension of the yeast mixtures was produced by growing the yeast strains on Sabouraud glucose-agar at 25° C. for 48 hours and washing down the cell lawn in each case with physiological saline solution (0.9% NaCl). Further steps for establishment of a cell count of the inoculum suspension of 10^7/ml to 10^8/ml were effected analogously to the production of the bacteria suspensions.
# (§6) In the examples, the samples were inoculated three times at weekly intervals with the respective cell suspensions (2% v/w) and the evolution of the bacteria or yeasts was followed by a semiquantitative evaluation method. After each inoculation, microbial infestation in the samples was evaluated in each case after incubation at 30° C. for 6 to 7 days. For this purpose, an aliquot was taken from each sample after homogenization using a sterile plastic inoculation loop (10 μl) and streaked evenly on agar plates (bacteria mixture 1 and 2 on tryptic soy agar, bacteria mixture 3 on DSMZ 31 alkaline nutrient agar, Sabouraud glucose-agar in the case of yeasts). The streaked agar plates were then incubated at 30° C. for 48 hours (bacteria mixture 1 and 2) or 5 to 7 days (bacteria mixture 3), or at 25° C. for 72 hours (yeast mixtures). After incubation, the bacteria colonies or yeast colonies that have grown on the agar plates were visually evaluated and quantified according to the following scheme:
# Inoculation 2% (w/v) with yeast mixture 1, cell count 10^8/ml
# bacteria mixture 3 = experiment: Repeated-inoculation microbiological stress test of body lotion, bacteria mixture 3; type: cell-based, Nesterenkonia spec.; parameters: key to Bacterial growth after inoculation: 0: No growth; Minimal growth, 1 to 10 colonies visible over the entire streak; 2: Light growth, maximum 100 colonies; Moderate growth, maximum 300 to 400 colonies; Uniform growth, >400 colonies, single colonies still clearly recognizable; 5: Heavy growth, too many colonies to count, but no growth over the entire streak; 6: Full growth, barely any single colonies still apparent, growth over the entire streak; conditions: for Bacterial growth after inoculation: Body lotion, 6 d
# From the text: as §1, §2, §3, §4
# The cell suspension of the bacteria mixtures was produced by growing the individual bacteria at 30° C. for 24 h in liquid culture on a shaker. The medium used to grow the bacteria from bacteria mixtures 1 and 2 was Müller-Hinton liquid medium. The bacteria from bacteria mixture 3 were grown in Müller-Hinton liquid medium that had been adjusted to pH 9.5 to 9.7 with an alkaline buffer solution beforehand. After growing, the individual liquid cultures were centrifuged, and the cells were resuspended in physiological saline solution. In order to adjust the mixtures to a total cell count of 10^8 to 10^9/ml, the individual bacteria suspensions, if necessary, were diluted accordingly before being combined with saline solution. The cell count of the inoculum suspensions was determined in each case by chamber counting.
# as §6
# Inoculation 2% (w/v) with bacteria mixture 3, cell count 10^8/ml
# yeast mixture 2 [1] = experiment: Repeated-inoculation microbiological stress test of body lotion, yeast mixture 2; type: cell-based, Candida albicans, Candida parapsilosis; parameters: key to Yeast growth after inoculation: 0: No growth; Minimal growth, 1 to 10 colonies visible over the entire streak; 2: Light growth, maximum 100 colonies; Moderate growth, maximum 300 to 400 colonies; Uniform growth, >400 colonies, single colonies still clearly recognizable; 5: Heavy growth, too many colonies to count, but no growth over the entire streak; 6: Full growth, barely any single colonies still apparent, growth over the entire streak; conditions: for Yeast growth after inoculation: Body lotion, 6 d
# From the text: as §1, §2, §3, §4, §5, §6
# (§7) Inoculation 2% (w/v) with yeast mixture 2, cell count 10^7/ml
# yeast mixture 2 [2] = experiment: Repeated-inoculation microbiological stress test of shampoo, yeast mixture 2; type: cell-based, Candida albicans, Candida parapsilosis; parameters: key to Yeast growth after inoculation: 0: No growth; Minimal growth, 1 to 10 colonies visible over the entire streak; 2: Light growth, maximum 100 colonies; Moderate growth, maximum 300 to 400 colonies; Uniform growth, >400 colonies, single colonies still clearly recognizable; 5: Heavy growth, too many colonies to count, but no growth over the entire streak; 6: Full growth, barely any single colonies still apparent, growth over the entire streak; conditions: for Yeast growth after inoculation: Shampoo, 6 d
# From the text: as §1, §2, §3, §4, §5, §6, §7
# [3] = +10000 ppm guanidine hydrochloride (6180 ppm guanidine) pH 6.8, 1. inoculation
# [4] = +10000 ppm guanidine hydrochloride (6180 ppm guanidine) pH 6.8, 2. inoculation
# [5] = +10000 ppm guanidine hydrochloride (6180 ppm guanidine) pH 6.8, 3. inoculation
# [6] = +2500 ppm octanediol pH 7.0, 1. inoculation
# [7] = +2500 ppm octanediol pH 7.0, 2. inoculation
# [8] = +2500 ppm octanediol pH 7.0, 3. inoculation
# [9] = +5000 ppm octanediol pH 7.0, 1. inoculation
# [10] = +5000 ppm octanediol pH 7.0, 2. inoculation
# [11] = +5000 ppm octanediol pH 7.0, 3. inoculation
smiles,measurement,setting,value
N=C(N)N [guanidine hydrochloride],Yeast growth after inoculation,"yeast mixture 1; +1000 ppm guanidine hydrochloride (618 ppm guanidine) pH 7.7, 1. inoculation",5
same,Yeast growth after inoculation,"yeast mixture 1; +1000 ppm guanidine hydrochloride (618 ppm guanidine) pH 7.7, 2. inoculation",6
same,Yeast growth after inoculation,"yeast mixture 1; +1000 ppm guanidine hydrochloride (618 ppm guanidine) pH 7.7, 3. inoculation",6
same,Yeast growth after inoculation,"yeast mixture 1; +2500 ppm guanidine hydrochloride (1545 ppm guanidine) pH 7.7, 1. inoculation","1 (Minimal growth, 1 to 10 colonies visible over the entire streak)"
same,Yeast growth after inoculation,"yeast mixture 1; +2500 ppm guanidine hydrochloride (1545 ppm guanidine) pH 7.7, 2. inoculation","1 (Minimal growth, 1 to 10 colonies visible over the entire streak)"
same,Yeast growth after inoculation,"yeast mixture 1; +2500 ppm guanidine hydrochloride (1545 ppm guanidine) pH 7.7, 3. inoculation","1 (Minimal growth, 1 to 10 colonies visible over the entire streak)"
same,Yeast growth after inoculation,"yeast mixture 1; +5000 ppm guanidine hydrochloride (3090 ppm guanidine) pH 7.6, 1. inoculation",0
same,Yeast growth after inoculation,"yeast mixture 1; +5000 ppm guanidine hydrochloride (3090 ppm guanidine) pH 7.6, 2. inoculation",0
same,Yeast growth after inoculation,"yeast mixture 1; +5000 ppm guanidine hydrochloride (3090 ppm guanidine) pH 7.6, 3. inoculation","1 (Minimal growth, 1 to 10 colonies visible over the entire streak)"
same,stability of the all-purpose cleaner to microbial infestation by yeasts,yeast mixture 1; addition of 1516 ppm of guanidine in the form of guanidine hydrochloride at pH 7.7,distinct improvement in stability
same,Bacterial growth after inoculation,bacteria mixture 3; [3],6
same,Bacterial growth after inoculation,bacteria mixture 3; [4],6
same,Bacterial growth after inoculation,bacteria mixture 3; [5],6
same,stability of the body lotion to microbial infestation by bacteria,bacteria mixture 3; addition of 3035 ppm of guanidine in the form of guanidine hydrochloride at pH 7.0,distinct improvement in stability
same,Yeast growth after inoculation,yeast mixture 2 [1]; [3],5
same,Yeast growth after inoculation,yeast mixture 2 [1]; [4],6
same,Yeast growth after inoculation,yeast mixture 2 [1]; [5],6
same,stability of the body lotion to microbial infestation by yeasts,yeast mixture 2 [1]; addition of 4553 ppm of guanidine in the form of guanidine hydrochloride at pH 6.9,distinct improvement in stability
same,Yeast growth after inoculation,"yeast mixture 2 [2]; +10000 ppm guanidine hydrochloride (6070 ppm guanidine) pH 6.8, 1. inoculation","4 (Uniform growth, >400 colonies, single colonies still clearly recognizable)"
same,Yeast growth after inoculation,"yeast mixture 2 [2]; +10000 ppm guanidine hydrochloride (6070 ppm guanidine) pH 6.8, 2. inoculation",6
same,Yeast growth after inoculation,"yeast mixture 2 [2]; +10000 ppm guanidine hydrochloride (6070 ppm guanidine) pH 6.8, 3. inoculation",6
same,stability of the shampoo to microbial infestation by yeasts,"yeast mixture 2 [2]; table 6, addition of 4553 ppm of guanidine in the form of guanidine hydrochloride at pH 6.9",distinct improvement in stability
"CCCCCCC(O)CO (stereo not shown) [octanediol, octane-1,2-diol]",Bacterial growth after inoculation,bacteria mixture 3; [6],"4 (Uniform growth, >400 colonies, single colonies still clearly recognizable)"
same,Bacterial growth after inoculation,bacteria mixture 3; [7],6
same,Bacterial growth after inoculation,bacteria mixture 3; [8],6
same,Bacterial growth after inoculation,bacteria mixture 3; [9],"1 (Minimal growth, 1 to 10 colonies visible over the entire streak)"
same,Bacterial growth after inoculation,bacteria mixture 3; [10],"3 (Moderate growth, maximum 300 to 400 colonies)"
same,Bacterial growth after inoculation,bacteria mixture 3; [11],"3 (Moderate growth, maximum 300 to 400 colonies)"
same,Yeast growth after inoculation,yeast mixture 2 [1]; [6],5
same,Yeast growth after inoculation,yeast mixture 2 [1]; [7],6
same,Yeast growth after inoculation,yeast mixture 2 [1]; [8],6
same,Yeast growth after inoculation,yeast mixture 2 [1]; [9],"3 (Moderate growth, maximum 300 to 400 colonies)"
same,Yeast growth after inoculation,yeast mixture 2 [1]; [10],"3 (Moderate growth, maximum 300 to 400 colonies)"
same,Yeast growth after inoculation,yeast mixture 2 [1]; [11],"2 (Light growth, maximum 100 colonies)"
same,Yeast growth after inoculation,"yeast mixture 2 [2]; +2500 ppm octanediol pH 6.9, 1. inoculation","4 (Uniform growth, >400 colonies, single colonies still clearly recognizable)"
same,Yeast growth after inoculation,"yeast mixture 2 [2]; +2500 ppm octanediol pH 6.9, 2. inoculation",5
same,Yeast growth after inoculation,"yeast mixture 2 [2]; +2500 ppm octanediol pH 6.9, 3. inoculation",6
same,Yeast growth after inoculation,"yeast mixture 2 [2]; +5000 ppm octanediol pH 6.9, 1. inoculation","1 (Minimal growth, 1 to 10 colonies visible over the entire streak)"
same,Yeast growth after inoculation,"yeast mixture 2 [2]; +5000 ppm octanediol pH 6.9, 2. inoculation","2 (Light growth, maximum 100 colonies)"
same,Yeast growth after inoculation,"yeast mixture 2 [2]; +5000 ppm octanediol pH 6.9, 3. inoculation","2 (Light growth, maximum 100 colonies)"
